target: Protein artemis (Homo sapiens, UniProt Q96SD1); test: Artemis endonuclease inhibitor potency, dose response, biochemical, fluorescence intensity (AID 720701)
Sequence (Q96SD1 whole entry): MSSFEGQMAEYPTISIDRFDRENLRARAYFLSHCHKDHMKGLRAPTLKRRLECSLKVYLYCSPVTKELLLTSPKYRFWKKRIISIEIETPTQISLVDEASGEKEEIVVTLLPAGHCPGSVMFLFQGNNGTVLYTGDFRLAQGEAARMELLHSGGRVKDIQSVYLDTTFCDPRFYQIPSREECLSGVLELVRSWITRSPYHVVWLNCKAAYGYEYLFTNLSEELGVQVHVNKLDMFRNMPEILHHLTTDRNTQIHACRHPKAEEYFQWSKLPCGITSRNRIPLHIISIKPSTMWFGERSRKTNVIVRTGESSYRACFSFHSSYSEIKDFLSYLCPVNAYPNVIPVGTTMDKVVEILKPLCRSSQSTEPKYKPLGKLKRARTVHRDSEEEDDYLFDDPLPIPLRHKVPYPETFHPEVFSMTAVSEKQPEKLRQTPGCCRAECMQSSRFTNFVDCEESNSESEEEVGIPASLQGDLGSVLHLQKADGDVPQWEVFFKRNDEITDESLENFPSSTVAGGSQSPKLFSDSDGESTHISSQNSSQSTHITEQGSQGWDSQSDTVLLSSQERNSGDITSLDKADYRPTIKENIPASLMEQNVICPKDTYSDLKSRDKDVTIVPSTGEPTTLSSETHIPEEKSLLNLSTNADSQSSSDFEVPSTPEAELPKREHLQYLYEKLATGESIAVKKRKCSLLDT

**Q.** Which IC50 does the source give for `COc1ccc(Nc2nc(N=NCc3ccccc3)nc(NCc3ccco3)n2)cc1` here?
**A.** The IC50 was 2.65 µM.

**Q.** How did the IC50 turn out when `Cc1cccc(CN2C(=O)N/C(=C/c3ccc(C)s3)C2=O)c1` was run?
**A.** Its IC50 is 16.4 µM.

**Q.** Which IC50 does the source give for `CN1c2cccc3cccc(c23)C1N=O` (stereo unspecified) [1-Methyl-1H-benzo[cd]indol-2-one oxime] here?
**A.** Its IC50 is over 20 µM.

**Q.** For `CCCCCCCCCC(N=O)c1ccccn1` (stereo unspecified) [1-Pyridin-2-yl-decan-1-one oxime], which IC50 is on record?
**A.** The IC50 was 11 µM.

**Q.** Which IC50 does the source give for `CCCCOc1ccc(/C=C2/Sc3ccccc3C2=O)cc1` [2-(4-Butoxy-benzylidene)-benzo[b]thiophen-3-one] here?
**A.** Its IC50 is over 20 µM.

**Q.** Which IC50 does the source give for `N#CC(C(=O)NCc1ccccc1)c1nc2ccccc2nc1N1CCCC1` (stereo unspecified) [2-cyano-N-(phenylmethyl)-2-(3-pyrrolidin-1-ylquinoxalin-2-yl)ethanamide] here?
**A.** Its IC50 is 5 µM.

**Q.** For `CCCCc1ccc(/C=C2\C(=O)ON=C2c2ccccc2)s1` [4-(5-Butyl-thiophen-2-ylmethylene)-3-phenyl-4H-isoxazol-5-one], which IC50 is on record?
**A.** Its IC50 is 16.2 µM.

**Q.** `N#CC1C(=N)Oc2[nH]nc(-c3cccs3)c2C1c1ccoc1` (stereo unspecified) [6-amino-4-(furan-3-yl)-3-thiophen-2-yl-2,4-dihydropyrano[2,3-c]pyrazole-5-carbonitrile] was tested. Which IC50 did it give?
**A.** Its IC50 is over 20 µM.

**Q.** `C=CCN1C(=O)S/C(=C\c2ccc(N3CCOCC3)cc2C)C1=O` [(5Z)-5-[[2-methyl-4-(4-morpholinyl)phenyl]methylidene]-3-prop-2-enylthiazolidine-2,4-dione] was tested. Which IC50 did it give?
**A.** The IC50 was 1.5 µM.

**Q.** `COc1ccc(O)c(CN=Nc2nc(Nc3ccccc3)nc(-n3nc(C)cc3C)n2)c1` [(6E)-6-[[2-[4-(3,5-dimethylpyrazol-1-yl)-6-phenylazanyl-1,3,5-triazin-2-yl]hydrazinyl]methylidene]-4-methoxy-cyclohexa-2,4-dien-1-one] was tested. Which IC50 did it give?
**A.** Its IC50 is 2.23 µM.

**Q.** With `O=C1C=Cc2ccccc2/C1=C/NC12CN3CCN(CN(C3)C1)C2` [MLS000071484] as the compound, how does the IC50 read?
**A.** The IC50 was 3.64 µM.

**Q.** `NS(=O)(=O)c1ccc2c(c1)C1C=CCC1C(C1CC=CCC1)N2` (stereo unspecified) [MLS000530517] was tested. Which IC50 did it give?
**A.** The IC50 was 9.58 µM.

**Q.** With `CCN(CC)c1ccc(CN=Nc2nc3ccccc3[nH]2)c(O)c1` [MLS000541069] as the compound, how does the IC50 read?
**A.** The IC50 was 15.5 µM.

**Q.** How did the IC50 turn out when `CC(N=O)c1ccccc1C(=O)O` (stereo unspecified) [SMR000038583] was run?
**A.** The IC50 was 3.62 µM.

**Q.** How did the IC50 turn out when `CCOc1ccc(-n2c(O)c(C=Nc3ccc(N4CCOCC4)cc3)c(=O)[nH]c2=O)cc1` [SMR000109118] was run?
**A.** Its IC50 is over 20 µM.

**Q.** With `O=c1c2ccccc2nc(N=NCc2c(O)ccc3ccccc23)n1O` [SMR000145705] as the compound, how does the IC50 read?
**A.** The IC50 was 4.68 µM.

Reference: BindingDB's records for doi:10.7270/Q2MC8XP5 (Burnham Center For Chemical Genomics, 2013)
